We go through 68 compounds from patent publication US9845297B2, “Antimicrobial compounds and methods of making and using the same” (Melinta Therapeutics, Inc., priority 2009, dated 2017).

In general, MIC refers to the lowest concentration that inhibits growth of the organism.

For this test, the system named is Eschericia coli strain ATCC25922. The test is described as follows: standard microdilution assay to determine minimum inhibitory concentrations (MICs). Type of test: cell-based. To be noted: Escherichia coli, ATCC25922, Eschericia coli strain ATCC25922, standard microdilution assay; read-out: E. coli ATCC25922 MIC. The method in brief: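 Broth microdilution per CLSI protocols, typically 100 µL final volume, against E. coli ATCC25922. MIC values scored as +/− against a cutoff of 16 micrograms/ml.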
For orientation: In broth dilution the organism is exposed to a series of concentrations in liquid medium.
Take `NCCCN(CCCC(=O)O)Cc1ccc(-c2c[nH]c(NC(=O)Nc3cc(F)c(F)cc3F)nc2=O)cc1` [Compound 358]: the MIC is greater than 16 µg/mL.
The result for `CSCCCNCc1ccc(-c2c[nH]c(NC(=O)Nc3cc(F)c(F)cc3F)nc2=O)cc1` [Compound 281] reads greater than 16 µg/mL; that for `N=C(N)NCCCCN1CCC(c2c[nH]c(NC(=O)Nc3cccc(Cl)c3F)nc2=O)CC1` [Compound 547], greater than 16 µg/mL.
Regarding `Cc1cc([N+](=O)[O-])ccc1NC(=O)Nc1nc(=O)c(-c2ccc(CNCCCN)c(F)c2)c[nH]1` [Compound 495], the MIC is greater than 16 µg/mL.
As to `NCCCNCc1ccc(-c2c[nH]c(NC(=O)Nc3ccc(F)c(C(F)(F)F)c3)nc2=O)cc1F` [Compound 413], the MIC was greater than 16 µg/mL.
Then `NCCCN1CC2(CCN(c3c[nH]c(NC(=O)Nc4ccccc4OC(F)(F)F)nc3=O)C2)C1` [Compound 527], with greater than 16 µg/mL; and `O=C(Nc1nc(=O)c(-c2ccc(CNCC(O)CO)cc2)c[nH]1)Nc1cc(F)c(F)cc1F` (centres unmarked) [Compound 284], with greater than 16 µg/mL; and `NCCCNCc1ccc(-c2c[nH]c(Nc3nc4ccccc4[nH]3)nc2=O)cc1` [Compound 334], with less than 16 µg/mL.
Regarding `NCCCCCN1CCC(c2c[nH]c(NC(=O)Nc3cc(F)c(F)cc3F)nc2=O)CC1` [Compound 538], the MIC was greater than 16 µg/mL.
On to `O=C(O)CCNCc1ccc(-c2c[nH]c(NC(=O)Nc3ccccc3OC(F)(F)F)nc2=O)cc1` [Compound 300], for which the MIC is greater than 16 µg/mL.
Take `O=C(Nc1nc(=O)c(-c2ccc(CNCc3ncc[nH]3)cc2)c[nH]1)Nc1cc(F)c(F)cc1F` [Compound 313]: the MIC is greater than 16 µg/mL.
As for `Cc1cc(CNCCCN)ccc1-c1c[nH]c(NC(=O)Nc2ccccc2OC(F)(F)F)nc1=O` [Compound 500], the MIC was less than 16 µg/mL.
For `O=C(Nc1nc(=O)c(-c2ccc(CNCc3ncc[nH]3)cc2)c[nH]1)Nc1ccccc1OC(F)(F)F` [Compound 314], the MIC is greater than 16 µg/mL.
Regarding `N[C@@H]1CCN(C(=O)Cc2c[nH]c(NC(=O)Nc3ccccc3OC(F)(F)F)nc2=O)C1` [Compound 410], the MIC was greater than 16 µg/mL.
As to `NCCCNCc1ccc(-c2c[nH]c(NC(=O)Nc3c(Cl)cc(Cl)cc3Cl)nc2=O)cc1F` [Compound 461], the MIC is greater than 16 µg/mL.
Consider `N=C(N)NCCCNCc1ccc(-c2c[nH]c(NC(=O)NCCCc3cc(F)c(F)cc3F)nc2=O)cc1F` [Compound 582], for which the minimal inhibitory concentration (MIC) was greater than 16 µg/mL.
As for `NCCCN(CCCN)Cc1ccc(-c2c[nH]c(Nc3ccc(C(F)(F)F)cc3)nc2=O)cc1F` [Compound 489], the MIC is greater than 16 µg/mL.
Consider `O=C(O)CCCNCc1ccc(-c2c[nH]c(NC(=O)Nc3cc(F)c(F)cc3F)nc2=O)cc1` [Compound 327], for which the MIC was greater than 16 µg/mL.
`NCCCN(CCCNC(N)=O)Cc1ccc(-c2c[nH]c(NC(=O)Nc3ccccc3OC(F)(F)F)nc2=O)cc1` [Compound 394]: the minimum inhibitory concentration (MIC) was less than 16 µg/mL.
For the compound `COc1nc(Nc2nc3ccccc3o2)ncc1-c1ccc(CNCCCN)c(F)c1` [Compound 589], the MIC was greater than 16 µg/mL.
For `N=C(N)NCCCN(CCCN)Cc1ccc(-c2c[nH]c(NC(=O)NCCc3ccc(F)cc3)nc2=O)cc1` [Compound 465], the MIC was greater than 16 µg/mL.
The result for `NCCCNCc1ccc(-c2c[nH]c(NCCc3nc4cc(F)c(F)cc4o3)nc2=O)cc1F` [Compound 608] reads greater than 16 µg/mL; that for `NCCCNCc1ccc(-c2c[nH]c(Nc3ccccc3C(F)(F)F)nc2=O)cc1C(F)(F)F` [Compound 376], greater than 16 µg/mL.
Then `NCCCNCc1ccc(-c2c[nH]c(Nc3nc4ccccc4[nH]3)nc2=O)c(F)c1` [Compound 493], with less than 16 µg/mL; and `NCCCNCc1ccc(-n2cc(F)c(N)nc2=O)cc1` [Compound 137], with greater than 16 µg/mL.
`COc1cc2nc(Nc3nc(=O)c(-c4ccc(CN(CCCN)CCCN)c(F)c4)c[nH]3)[nH]c2cc1OC` [Compound 370]: the MIC was greater than 16 µg/mL.
`NCCCN(CCCO)Cc1ccc(-c2c[nH]c(NC(=O)Nc3ccccc3OC(F)(F)F)nc2=O)cc1` [Compound 324]: the MIC is less than 16 µg/mL.
As to `NCCCNCc1ccc(-c2c[nH]c(NC(=O)Nc3ccccc3OC(F)(F)F)nc2=O)cn1` [Compound 553], the MIC is greater than 16 µg/mL.
`NCCCN(CCCN)Cc1ccc(-c2c[nH]c(NC(=O)Cc3ccc(C(F)(F)F)cc3)nc2=O)cc1` [Compound 205]: the MIC was greater than 16 µg/mL.
With `NCCCNCc1ccc(-c2c[nH]c(NC(=O)Nc3ccc(Cl)cc3Cl)nc2=O)cc1F` [Compound 496], the MIC is less than 16 µg/mL.
For the compound `C[S+]([O-])CCCNCc1ccc(-c2c[nH]c(NC(=O)Nc3cc(F)c(F)cc3F)nc2=O)cc1` (centres unmarked) [Compound 302], the minimal inhibitory concentration (MIC) was greater than 16 µg/mL.
Take `NCCCNCc1ccc(-c2c[nH]c(Nc3nc4cc(F)c(F)cc4[nH]3)nc2=O)cc1` [Compound 438]: the MIC is less than 16 µg/mL.
As for `NCCCCN1CCN(c2c[nH]c(NC(=O)Nc3cc(F)c(F)cc3F)nc2=O)CC1` [Compound 520], the MIC was greater than 16 µg/mL.
The result for `N#Cc1ccc(NC(=O)Nc2nc(=O)c(-c3ccc(CNCCCN)c(F)c3)c[nH]2)cc1` [Compound 386] reads greater than 16 µg/mL; that for `NCCCNCc1ccc(-c2c[nH]c(Nc3ccc(C(F)(F)F)cc3)nc2=O)cc1F` [Compound 488], greater than 16 µg/mL.
Then `NCCCCN1CCC(c2c[nH]c(NC(=O)Nc3cc(F)c(F)cc3F)nc2=O)CC1` [Compound 535], with greater than 16 µg/mL; and `N=C(N)NCCCNCc1ccc(-c2c[nH]c(NC(=O)Nc3cc(F)c(F)cc3F)nc2=O)cc1` [Compound 350], with less than 16 µg/mL.
With `NCCCN1CCCC(c2c[nH]c(NC(=O)Nc3ccccc3OC(F)(F)F)nc2=O)CC1` (centres unmarked) [Compound 516], the MIC is greater than 16 µg/mL.
As for `CN(C)CCN1CCN(c2ccc(NC(=O)Nc3ccn(CCCC(CCCNC(=N)N)NCCCN)c(=O)n3)cc2)CC1` (centres unmarked) [Compound 208], the minimum inhibitory concentration (MIC) was less than 16 µg/mL.
`NC1CCN(Cc2ccc(-c3c[nH]c(NC(=O)Nc4ccccc4OC(F)(F)F)nc3=O)cc2)CC1` [Compound 251]: the MIC was less than 16 µg/mL.
`NCCCNCc1ccc(-c2c[nH]c(NC(=O)NCCc3cccc(Cl)c3)nc2=O)cc1F` [Compound 421]: the MIC was greater than 16 µg/mL.
The result for `N#Cc1ccc(NC(=O)Nc2nc(=O)c(-c3ccc(CN(CCCN)CCCNC(=N)N)cc3)c[nH]2)cc1` [Compound 452] reads less than 16 µg/mL; that for `Cn1c(Nc2nc(=O)c(-c3ccc(CN(CCCN)CCCN)c(F)c3)c[nH]2)nc2ccccc21` [Compound 428], greater than 16 µg/mL; that for `NCCCNCc1ccc(-c2c[nH]c(NC(=O)Nc3ccccc3OC(F)(F)F)nc2=O)c(F)c1` [Compound 432], less than 16 µg/mL.
Regarding `CN(C)C(=O)CN1CCN(c2ccc(NC(=O)Nc3ccn(CCC[C@H](CCCNC(=N)N)NCCCN)c(=O)n3)cc2)CC1` [Compound 214], the MIC was greater than 16 µg/mL.
Take `NCCCNCc1ccc(-c2c[nH]c(NC(=O)NCc3ccc(Cl)cc3Cl)nc2=O)cc1F` [Compound 463]: the MIC was less than 16 µg/mL.
`NC(N)NCCCN1CCC(c2c[nH]c(NC(=O)Nc3ccccc3OC(F)(F)F)nc2=O)CC1` [Compound 456]: the minimum inhibitory concentration (MIC) is greater than 16 µg/mL.
On to `NCCCN(CCCN)Cc1ccc(-c2c[nH]c(NC(=O)Nc3cc(F)c(F)cc3F)nc2=O)cc1F` [Compound 311], for which the MIC is greater than 16 µg/mL.
Take `CN(C(=O)C[C@H](CCCNC(=N)N)NC(=O)CCO)C1CNC(NC(N)=O)=NC1=O` (some centres unmarked) [Compound 104]: the MIC was greater than 16 µg/mL.
`NCCCN(CCCc1cccnc1)Cc1ccc(-c2c[nH]c(NC(=O)Nc3ccccc3OC(F)(F)F)nc2=O)cc1` [Compound 372]: the MIC was greater than 16 µg/mL.
For `NCCCNCc1ccc(-c2c[nH]c(NC(=O)NCCc3ccc(Cl)cc3)nc2=O)cc1F` [Compound 423], the MIC is greater than 16 µg/mL.
As to `N=C(N)NCCCN(CCCN)Cc1ccc(-c2c[nH]c(NC(=O)Nc3ccccc3OC(F)(F)F)nc2=O)cc1` [Compound 349], the minimal inhibitory concentration (MIC) is less than 16 µg/mL.
Then `NCCCCN1CCN(c2c[nH]c(NC(=O)Nc3cccc(Cl)c3F)nc2=O)CC1` [Compound 521], with greater than 16 µg/mL; and `COc1ccc(C(=O)Nc2ccn(CCCC(CCCNC(=N)N)NCCCN)c(=O)n2)cc1` (centres unmarked) [Compound 177], with greater than 16 µg/mL; and `N=C(N)NCCCNCc1ccc(-c2c[nH]c(NC(=O)Nc3ccccc3OC(F)(F)F)nc2=O)cc1` [Compound 332], with less than 16 µg/mL.
The result for `CN(C(=O)C[C@H](CCCNC(=N)N)NC(=O)CCN1CCNCC1)C1CNC(NC(N)=O)=NC1=O` (some centres unmarked) [Compound 108] reads greater than 16 µg/mL; that for `N=C(N)NCCCCCN1CCC(c2c[nH]c(NC(=O)Nc3ccccc3OC(F)(F)F)nc2=O)CC1` [Compound 584], greater than 16 µg/mL; that for `NCCCN(CCCN)Cc1ccc(-c2c[nH]c(NC(=O)Nc3ccccc3OC(F)(F)F)nc2=O)cc1F` [Compound 308], less than 16 µg/mL.
The result for `NCCCNCc1ccc(-c2c[nH]c(NC(=O)Nc3cccc([N+](=O)[O-])c3)nc2=O)cc1F` [Compound 485] reads greater than 16 µg/mL; that for `N[C@H]1CCN(CCc2c[nH]c(NC(=O)Nc3ccccc3OC(F)(F)F)nc2=O)C1` [Compound 381], greater than 16 µg/mL; that for `O=C(Nc1nc(=O)c(-c2ccc(CNCc3ccncc3)cc2)c[nH]1)Nc1cc(F)c(F)cc1F` [Compound 329], greater than 16 µg/mL.
As to `NCCCNCc1ccc(-n2ccc(NC(N)=O)nc2=O)cc1` [Compound 131], the MIC was greater than 16 µg/mL.
For `Cn1ccnc1CNCc1ccc(-c2c[nH]c(NC(=O)Nc3ccccc3OC(F)(F)F)nc2=O)cc1` [Compound 290], the MIC is greater than 16 µg/mL.
As to `NCCCNCc1ccc(-c2c[nH]c(Nc3ccc(C(F)(F)F)cc3)nc2=O)cc1C(F)(F)F` [Compound 382], the MIC was less than 16 µg/mL.
Take `NCc1ccc(-n2ccc(NC(N)=O)nc2=O)cc1` [Compound 139]: the MIC is greater than 16 µg/mL.
Consider `NCCCNCc1ccc(-c2c[nH]c(NC(=O)Nc3cccc(Cl)c3F)nc2=O)cn1` [Compound 552], for which the MIC was greater than 16 µg/mL.
For `CN1CCN(c2ccc(C(=O)Nc3ccn(CCC[C@H](CCCNC(=N)N)NCCCN)c(=O)n3)cc2)CC1` [Compound 190], the MIC was less than 16 µg/mL.
Turning to `NCCCNCc1c(F)cc(-c2c[nH]c(NC(=O)Nc3cccc(Cl)c3Cl)nc2=O)cc1F` [Compound 286], the MIC is greater than 16 µg/mL.
